Results taken from patent publication US8975398B2, “NAMPT inhibitors” (AbbVie Inc., priority 2012, dated 2015).

Tests used:
[1] = biological target: NAMPT (human, recombinant, C-terminally His-tagged) (Homo sapiens, UniProt P43490); assay: Time-Resolved Fluorescence Resonance Energy Transfer (TR-FRET) Binding Assay of NAMPT; settings: 6.8 nM NAMPT, 200 nM probe, equilibrated 3 hours, absence of substrates
Protocol: Determination of the utility of compounds having Formula (I) as binders to and inhibitors of NAMPT was performed using Time-Resolved Fluorescence Resonance Energy Transfer (TR-FRET) binding assays.
Time-Resolved Fluorescence Resonance Energy Transfer (TR-FRET) Binding Assay of NAMPT
Test compounds were serially diluted (typically 11 half log dilutions) in neat DMSO to 50× final concentrations prior to dilution with assay buffer (50 mM HEPES (NaOH), pH 7.5, 100 mM NaCl, 10 mM MgCl2, 1 mM DTT, 1% Glycerol) to 3× and 6% DMSO. Six μL were transferred to 384-well low-volume plates (Owens Corning #3673). To this, 12 μL of a 1.5× solution containing enzyme, probe and antibody were added. Final concentrations in the 18 μL, reactions were 1× assay buffer, 2% DMSO, 6.8 nM NAMPT (human, recombinant, C-terminally His-tagged), 200 nM probe (a potent nicotinamide-competitive inhibitor conjugated to Oregon Green 488) and 1 nM Tb-anti-His antibody (Invitrogen #PV5895). Reactions were equilibrated at room temperature for 3 hours prior to reading on an Envision multi-label plate reader (Perkin Elmer; Ex=337 nm, Em=520 and 495 nm). Time-resolved FRET ratios (Em520/Em495) were normalized to controls, plotted as a function of compound concentration and fit with the four-parameter logistic equation to determine IC50s.

NAMPT = NAMPT (Homo sapiens, UniProt P43490); assay: Time-Resolved Fluorescence Resonance Energy Transfer (TR-FRET) Binding Assay of NAMPT with PRPP; settings: 2 nM NAMPT, 2 nM probe, 200 uM PRPP and 2.5 mM ATP, equilibrated 16 hours
NAMPT, sequence (P43490 whole entry): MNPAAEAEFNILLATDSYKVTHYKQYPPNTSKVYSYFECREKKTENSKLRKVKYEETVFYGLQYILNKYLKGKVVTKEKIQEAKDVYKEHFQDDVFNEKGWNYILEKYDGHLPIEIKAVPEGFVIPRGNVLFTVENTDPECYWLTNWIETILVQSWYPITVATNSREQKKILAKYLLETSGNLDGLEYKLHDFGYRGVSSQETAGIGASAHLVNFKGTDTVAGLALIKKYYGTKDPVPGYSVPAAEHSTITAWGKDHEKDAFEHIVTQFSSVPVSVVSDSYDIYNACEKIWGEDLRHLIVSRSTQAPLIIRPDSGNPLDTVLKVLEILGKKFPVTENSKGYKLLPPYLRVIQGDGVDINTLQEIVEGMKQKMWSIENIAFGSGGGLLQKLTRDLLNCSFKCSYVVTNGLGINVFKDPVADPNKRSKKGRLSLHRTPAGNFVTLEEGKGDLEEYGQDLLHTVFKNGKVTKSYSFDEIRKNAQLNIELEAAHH
Protocol: Time-Resolved Fluorescence Resonance Energy Transfer (TR-FRET) Binding Assay of NAMPT with PRPP
Compound handling and data processing were identical to the assay in the absence of substrates (above). Final concentrations were 1× assay buffer, 2% DMSO, 2 nM NAMPT, 2 nM probe, 1 nM Tb-anti-His antibody (Invitrogen #PV5895), 200 uM PRPP and 2.5 mM ATP. Reactions were equilibrated for 16 hours prior to measurement to allow for potential enzymatic modification of test compounds.

NAMPT (human, recombinant, C-terminally His-tagged), sequence (P43490 whole entry): as above

Structure (SMILES) | IC50 [1] | IC50 (NAMPT)
CC(C)(O)C(=O)N1CCC(c2ccc(NC(=O)C3CN(c4cnccc4C#N)C3)cc2)CC1 [Example 97, 1-(4-cyanopyridin-3-yl)-N-{4-[1-(2-hydroxy-2-methylpropanoyl)piperidin-4-yl]phenyl}azetidine-3-carboxamide] | 36.6 nM | 131 nM
CCC(C)(C)C(=O)N1CCC(c2ccc(NC(=O)C3CN(c4cccnn4)C3)cc2)CC1 [Example 325, N-{4-[1-(2,2-dimethylbutanoyl)piperidin-4-yl]phenyl}-1-(pyridazin-3-yl)azetidine-3-carboxamide] | 14 nM | 1.08 nM
CCCCC(=O)N1CCC(Oc2ccc(NC(=O)C3CN(c4cccnc4)C3)cc2)CC1 [Example 34, N-{4-[(1-pentanoylpiperidin-4-yl)oxy]phenyl}-1-(pyridin-3-yl)azetidine-3-carboxamide] | 71.4 nM | 0.886 nM
O=C(Nc1ccc(OC2CCN(C(=O)Cc3ccc(F)cc3)CC2)cc1)C1CN(c2ccnnc2)C1 [Example 276, N-[4-({1-[(4-fluorophenyl)acetyl]piperidin-4-yl}oxy)phenyl]-1-(pyridazin-4-yl)azetidine-3-carboxamide] | 134 nM | 34.9 nM
CCCCCC(=O)N1CCC(c2ccc(NC(=O)C3CN(c4cccnn4)C3)cc2)CC1 [Example 321, N-[4-(1-hexanoylpiperidin-4-yl)phenyl]-1-(pyridazin-3-yl)azetidine-3-carboxamide] | 38.7 nM | 0.864 nM
CC(=O)N1CCC(c2ccc(NC(=O)C3CN(c4cccnc4C)C3)cc2)CC1 [Example 178, N-[4-(1-acetylpiperidin-4-yl)phenyl]-1-(2-methylpyridin-3-yl)azetidine-3-carboxamide] | 247 nM | 65.2 nM
CC(C)C(C)C(=O)N1CCC(c2ccc(NC(=O)C3CN(c4cccnc4)C3)cc2)CC1 (stereo not shown) [Example 139, N-{4-[1-(2,3-dimethylbutanoyl)piperidin-4-yl]phenyl}-1-(pyridin-3-yl)azetidine-3-carboxamide] | 12 nM | 0.473 nM
N#Cc1cccc(C(=O)N2CCC(c3ccc(NC(=O)C4CN(c5cccnn5)C4)cc3)CC2)c1 [Example 352, N-{4-[1-(3-cyanobenzoyl)piperidin-4-yl]phenyl}-1-(pyridazin-3-yl)azetidine-3-carboxamide] | 95.8 nM | 0.615 nM
Cc1ncccc1N1CC(C(=O)Nc2ccc(C3CCN(C(=O)CC4C[C@@H]5CC[C@H]4C5)CC3)cc2)C1 (stereo partly drawn) [Example 161, N-(4-{1-[(1S,4R)-bicyclo[2.2.1]hept-2-ylacetyl]piperidin-4-yl}phenyl)-1-(2-methylpyridin-3-yl)azetidine-3-carboxamide] | 128 nM | 59.7 nM
O=C(Nc1ccc(OC2CN(C(=O)C3CCCCC3)C2)cc1)C1CN(c2ccnnc2)C1 [Example 255, N-(4-{[1-(cyclohexylcarbonyl)azetidin-3-yl]oxy}phenyl)-1-(pyridazin-4-yl)azetidine-3-carboxamide] | 47.3 nM | 37.8 nM
CCCC(C)C(=O)N1CCC(c2ccc(NC(=O)C3CN(c4cccnn4)C3)cc2)CC1 (stereo not shown) [Example 322, N-{4-[1-(2-methylpentanoyl)piperidin-4-yl]phenyl}-1-(pyridazin-3-yl)azetidine-3-carboxamide] | 28.6 nM | 0.843 nM
COCCOCC(=O)N1CCC(c2ccc(NC(=O)C3CN(c4cccnn4)C3)cc2)CC1 [Example 335, N-(4-{1-[(2-methoxyethoxy)acetyl]piperidin-4-yl}phenyl)-1-(pyridazin-3-yl)azetidine-3-carboxamide] | 210 nM | 1.02 nM
O=C(Nc1ccc(OC2CCN(C(=O)c3cccc(Cl)c3)CC2)cc1)C1CN(c2ccnnc2)C1 [Example 295, N-(4-{[1-(3-chlorobenzoyl)piperidin-4-yl]oxy}phenyl)-1-(pyridazin-4-yl)azetidine-3-carboxamide] | 77.6 nM | 51 nM
O=C(Nc1ccc(C2CCN(C(=O)CN3CCCC3)CC2)cc1)C1CN(c2cccnc2)C1 [Example 105, 1-(pyridin-3-yl)-N-{4-[1-(pyrrolidin-1-ylacetyl)piperidin-4-yl]phenyl}azetidine-3-carboxamide] | 296 nM | 0.244 nM
CCOCCC(=O)N1CCC(c2ccc(NC(=O)C3CN(c4cccnc4C)C3)cc2)CC1 [Example 175, N-{4-[1-(3-ethoxypropanoyl)piperidin-4-yl]phenyl}-1-(2-methylpyridin-3-yl)azetidine-3-carboxamide] | 664 nM | 161 nM
O=C(Nc1ccc(C2CCN(C(=O)c3ccco3)CC2)cc1)C1CN(c2cccnc2)C1 [Example 129, N-{4-[1-(furan-2-ylcarbonyl)piperidin-4-yl]phenyl}-1-(pyridin-3-yl)azetidine-3-carboxamide] | 4.49 nM | 0.367 nM
Cc1ncccc1N1CC(C(=O)Nc2ccc(C3CCN(C(=O)c4ccccc4Cl)CC3)cc2)C1 [Example 151, N-{4-[1-(2-chlorobenzoyl)piperidin-4-yl]phenyl}-1-(2-methylpyridin-3-yl)azetidine-3-carboxamide] | 17.4 nM | 43.6 nM
Cc1ncccc1N1CC(C(=O)Nc2ccc(C3CCN(C(=O)c4cccc(Cl)c4)CC3)cc2)C1 [Example 153, N-{4-[1-(3-chlorobenzoyl)piperidin-4-yl]phenyl}-1-(2-methylpyridin-3-yl)azetidine-3-carboxamide] | 266 nM | 122 nM
Cn1cccc1C(=O)N1CCC(c2ccc(NC(=O)C3CN(c4cccnc4)C3)cc2)CC1 [Example 128, N-(4-{1-[(1-methyl-1H-pyrrol-2-yl)carbonyl]piperidin-4-yl}phenyl)-1-(pyridin-3-yl)azetidine-3-carboxamide] | 8.36 nM | 0.61 nM
CC(C)(C)CCN1CCC(c2ccc(NC(=O)C3CN(c4cccnc4)C3)cc2)CC1 [Example 87, N-{4-[1-(3,3-dimethylbutyl)piperidin-4-yl]phenyl}-1-(pyridin-3-yl)azetidine-3-carboxamide] | 1390 nM | 1.27 nM
CC[C@H](C)C(=O)N1CCC(c2ccc(NC(=O)C3CN(c4cccnc4)C3)cc2)CC1 [Example 22, N-(4-{1-[(2S)-2-methylbutanoyl]piperidin-4-yl}phenyl)-1-(pyridin-3-yl)azetidine-3-carboxamide] | 11.7 nM | 0.169 nM
O=C(Nc1ccc(C2CCN(C(=O)c3ccoc3)CC2)cc1)C1CN(c2cccnc2)C1 [Example 104, N-{4-[1-(furan-3-ylcarbonyl)piperidin-4-yl]phenyl}-1-(pyridin-3-yl)azetidine-3-carboxamide] | 1.2 nM | 0.193 nM
Cc1ncccc1N1CC(C(=O)Nc2ccc(C3CCN(C(=O)C4(C)CCCCC4)CC3)cc2)C1 [Example 177, N-(4-{1-[(1-methylcyclohexyl)carbonyl]piperidin-4-yl}phenyl)-1-(2-methylpyridin-3-yl)azetidine-3-carboxamide] | 60.4 nM | 91.3 nM
Cc1ncccc1N1CC(C(=O)Nc2ccc(C3CCN(C(=O)C(C)C(C)C)CC3)cc2)C1 (stereo not shown) [Example 198, N-{4-[1-(2,3-dimethylbutanoyl)piperidin-4-yl]phenyl}-1-(2-methylpyridin-3-yl)azetidine-3-carboxamide] | 84.5 nM | 103 nM
CCOCC(=O)N1CCC(c2ccc(NC(=O)C3CN(c4cccnc4)C3)cc2)CC1 [Example 131, N-{4-[1-(ethoxyacetyl)piperidin-4-yl]phenyl}-1-(pyridin-3-yl)azetidine-3-carboxamide] | 69.9 nM | 0.474 nM
Cc1ncccc1N1CC(C(=O)Nc2ccc(C3CCN(C(=O)CC4CCCCC4)CC3)cc2)C1 [Example 179, N-{4-[1-(cyclohexylacetyl)piperidin-4-yl]phenyl}-1-(2-methylpyridin-3-yl)azetidine-3-carboxamide] | 99.2 nM | 70.7 nM
CC(C)CCC(=O)N1CC(Oc2ccc(NC(=O)C3CN(c4ccnnc4)C3)cc2)C1 [Example 263, N-(4-{[1-(4-methylpentanoyl)azetidin-3-yl]oxy}phenyl)-1-(pyridazin-4-yl)azetidine-3-carboxamide] | 31.3 nM | 20.2 nM
O=C(Nc1ccc(OC2CCN(C(=O)Cc3cccc(C(F)(F)F)c3)CC2)cc1)C1CN(c2ccnnc2)C1 [Example 305, 1-(pyridazin-4-yl)-N-{4-[(1-{[3-(trifluoromethyl)phenyl]acetyl}piperidin-4-yl)oxy]phenyl}azetidine-3-carboxamide] | 109 nM | 35 nM
O=C(Nc1ccc(OC2CN(C(=O)c3ccc(C(F)(F)F)cc3)C2)cc1)C1CN(c2ccnnc2)C1 [Example 205, 1-(pyridazin-4-yl)-N-[4-({1-[4-(trifluoromethyl)benzoyl]azetidin-3-yl}oxy)phenyl]azetidine-3-carboxamide] | 25.1 nM | 34 nM
